Patent US20240218066A1, “USE OF ANTI-PD-1 ANTIBODY IN COMBINATION WITH FIRST-LINE CHEMOTHERAPY IN TREATMENT OF ADVANCED NON-SMALL CELL LUNG CANCER” (SHANGHAI JUNSHI BIOSCIENCES CO., LTD., priority 2021, published 2024)

What was measured:
[1] = test system: patients with untreated advanced NSCLC; assay: Phase III clinical study, efficacy assessed by the BIRC according to RECIST 1.1; assay type: in vivo, human; set-up: reduction of the risk of progression or death, compared to standard chemotherapy / increase of PFS rate at 6 months compared to control group / increase of PFS rate at 12 months compared to control group / increase in ORR compared to control group: concentration or dose not given beside the values
Method: About 450 patients with advanced NSCLC not accompanied by EGFR-sensitive mutations and ALK fusions were randomly divided into two groups according to a 2:1 ratio, with the test group receiving toripalimab in combination with first-line standard chemotherapy and the control group receiving placebo in combination with first-line standard chemotherapy. Stratification was performed according to PD-L1 expression (TC≥1% vs TC<1%), smoking status (frequent smoking vs no smoking or little smoking), and pathological type (squamous cell carcinoma vs non-squamous cell carcinoma).
After randomization, the patients were subjected to treatment in the induction stage for 4-6 cycles, during which the patients received toripalimab/placebo+first-line standard chemotherapy. After the induction stage was over, the patients were subjected to treatment in the maintenance stage, during which patients with squamous cell carcinoma continued to receive toripalimab/placebo treatment until progressive disease, and patients with non-squamous cell carcinoma continued to receive toripalimab/placebo+pemetrexed treatment until progressive disease.
Tumor assessments were performed once every 6 weeks for the first 12 months of the study stage according to RECIST 1.1 and iRECIST; after 12 months, tumor assessments were performed every 9 weeks until progressive disease, initiation of a new anti-tumor therapy, intolerable toxicity, withdrawal of informed consent or death, 2 years of treatment with toripalimab, or other reasons as specified in the protocol, whichever occurred first.
Eligible subjects must (1) be patients with histologically and/or cytologically confirmed locally advanced (stage IIIB or IIIC) and stage IV non-small cell lung cancer that is inoperable and cannot receive radical concurrent chemoradiotherapy; (2) have at least one measurable lesion (according to RECIST 1.1); (3) have not received any systemic treatment (patients with recurrence more than 6 months after completion of prior neoadjuvant/adjuvant therapy may also be enrolled); (4) be aged between 18 and 75 years; (5) have ECOG of 0-1; (6) have an expected survival of ≥3 months; and (7) be available to provide tissue specimens for PD-L1 testing.
Unless otherwise specified, the efficacy analysis was based on the ITT set, which was analyzed by groups according to the treatment regimen to which patients were assigned at randomization.
The progression-free survival rate and median progression-free survival of the JS001+first-line standard treatment group and the placebo+first-line standard treatment group at different time points after the start of treatment were estimated by the Kaplan-Meier method, and Kaplan-Meier curves were plotted. The 95% confidence interval for progression-free survival rate at different time points (6 months and 1 year) was estimated using the Greenwood formula. The 95% confidence interval for median progression-free survival was estimated using the Brookmeyer-Crowley method where the log-log function conversion was used to reach normal approximation. Statistical test was performed on the inter-group difference by a stratified log-rank method for the total population. Statistical test was performed on the inter-group difference by a non-stratified log-rank method for the subpopulations. A stratified COX proportional hazards model was used to estimate the inter-group hazard ratio (HR) and the corresponding 95% confidence interval, and the tied events were processed by an exact method. Stratification analysis was performed using 3 stratification factors in the randomization process, including: (1) PD-L1 expression (TC≥1% vs TC<1%); (2) smoking status (frequent smoking vs no smoking or little smoking); and (3) pathological type (squamous cell carcinoma vs non-squamous cell carcinoma).
For analysis of secondary efficacy endpoints OS, DOR, and TTR, the method described above as applied to the primary efficacy endpoint PFS was used. […]

[2] = test system: patients with untreated advanced NSCLC; assay: Phase III clinical study, biomarker analysis (WES, TMB, gene mutations); assay type: in vivo, human
Method: As of Oct. 31, 2021, whole exome sequencing (WES) was performed on tumor biopsies and matched peripheral blood from 394 patients.
Tumor mutation burden (TMB) was determined by analyzing somatic mutations within coding regions of the human genome. The median TMB in each group was 6.6 mutations per million base pairs (Mb). Tumor tissue from 122 (26.2%) patients had more than 10 mutations/Mb, 72.1% of which was also PD-L1 TC≥1% (see FIG. 6a). […] However, compared to TMB-L (i.e., low TMB) patients (TMB<10 mutations/Mb). TMB-H patients had better PFS in the toripalimab group than in the placebo group (interaction P=0.026) (see FIGS. 7a and 7b).
Gene set enrichment analysis was performed on the relevant genes to identify over-represented biological pathways. […] In addition, patients with alterations in the IL-7 signaling pathway (HGF, IRS1, IRS2, and SMARCA4) or chromatin remodeling SWI/SNF complex (SMARCA4, SMARCA2, and PBRM1) also had better PFS results from combination therapy with toripalimab (see FIGS. 12-13).

[3] = patients with non-squamous cell carcinoma
[4] = patients with squamous cell carcinoma

Substance: JS001 + standard first-line chemotherapy: toripalimab 240 mg Q3W plus albumin-bound paclitaxel+carboplatin (squamous) or pemetrexed+cisplatin/carboplatin (non-squamous)
- PFS rate at 6 months ([1]; ITT): 65.3%
- PFS rate at 12 months ([1]; ITT): 38.9%
- increase of PFS rate at 6 months compared to control group ([1]; ITT): 16%
- increase of PFS rate at 12 months compared to control group ([1]; ITT): 22.7%
- HR for PFS (test vs control) ([1]; ITT population): 0.61
- PFS prolonged by, compared to standard chemotherapy ([1]; ITT population): 2.5 months
- reduction of the risk of progression or death, compared to standard chemotherapy ([1]; ITT population): 39%
- median PFS ([1]; ITT population, RECIST 1.1): 8.3 months
- Best overall response: Complete response (CR) ([1]; non-squamous cell carcinoma): 3 (1.9) N (%)
- Best overall response: Deletion ([1]; non-squamous cell carcinoma): 8 (4.9) N (%)
- Best overall response: Non-complete response/non-progressive disease (Non CR/Non PD) ([1]; non-squamous cell carcinoma): 0 N (%)
- Best overall response: Not evaluable (NE) ([1]; non-squamous cell carcinoma): 0 N (%)
- Best overall response: Partial response (PR) ([1]; non-squamous cell carcinoma): 94 (58.0) N (%)
- Best overall response: Progressive disease (PD) ([1]; non-squamous cell carcinoma): 8 (4.9) N (%)
- Duration of response (DOR), Median (95% confidence interval) ([1]; non-squamous cell carcinoma): NE (6.9, NE)
- Objective response rate (ORR) ([1]; non-squamous cell carcinoma): 97 (59.9) N (%)
- DCR ([1]; overall population): 90.9%
- increase in ORR compared to control group ([1]; overall population): 20.8%
- ORR ([1]; overall population, RECIST v1.1): 65.7%
- HR for PFS (test vs control) [1, 3]: 0.55
- ORR [1, 3]: 59.9%
- increase in ORR compared to control group [1, 3]: 27.4%
- median PFS [1, 3]: 10.3 months
- HR for PFS (test vs control) [1, 4]: 0.63
- ORR [1, 4]: 72.1%
- increase in ORR compared to control group [1, 4]: 13.3%
- median PFS [1, 4]: 6.9 months
- Best overall response: Complete response (CR) ([1]; squamous cell carcinoma): 0 N (%)
- Best overall response: Deletion ([1]; squamous cell carcinoma): 8 (5.4) N (%)
- Best overall response: Non-complete response/non-progressive disease (Non CR/Non PD) ([1]; squamous cell carcinoma): 1 (0.7) N (%)
- Best overall response: Not evaluable (NE) ([1]; squamous cell carcinoma): 0 N (%)
- Best overall response: Partial response (PR) ([1]; squamous cell carcinoma): 106 (72.1) N (%)
- Best overall response: Progressive disease (PD) ([1]; squamous cell carcinoma): 3 (2.0) N (%)
- Duration of response (DOR), Median (95% confidence interval) ([1]; squamous cell carcinoma): 5.7 (5.2, 9.5)
- Objective response rate (ORR) ([1]; squamous cell carcinoma): 106 (72.1) N (%)
- response rate (ORR) ([2]; ITT population, as of Oct. 31, 2021): 65.7%
- ORR ([2]; TMB-H patients (TMB≥10 mutations/Mb), as of Oct. 31, 2021): 72.7%
- median PFS ([2]; patients carrying FA/PI3K/Akt pathway mutations): 8.9 months
- median PFS ([2]; patients carrying the SMARCA4 mutation (n=48), especially non-squamous cell subgroup (n=33)): 9.9 months
